From ChEMBL document CHEMBL1201862, “PubChem BioAssay data set” (2004)
The source made the active and inactive calls.

Experiments:
[1] = biological target: T1, Aminopeptidase N (Plasmodium falciparum FcB1/Columbia, UniProt O96935); assay: P. falciparum M1AAP inhibitors, biochemical, fluorogenic H-Leu-NHMec substrate, 1536-well (AID 1445); design: species or system Plasmodium falciparum 3D7, 3D7
T1 sequence (O96935 whole entry): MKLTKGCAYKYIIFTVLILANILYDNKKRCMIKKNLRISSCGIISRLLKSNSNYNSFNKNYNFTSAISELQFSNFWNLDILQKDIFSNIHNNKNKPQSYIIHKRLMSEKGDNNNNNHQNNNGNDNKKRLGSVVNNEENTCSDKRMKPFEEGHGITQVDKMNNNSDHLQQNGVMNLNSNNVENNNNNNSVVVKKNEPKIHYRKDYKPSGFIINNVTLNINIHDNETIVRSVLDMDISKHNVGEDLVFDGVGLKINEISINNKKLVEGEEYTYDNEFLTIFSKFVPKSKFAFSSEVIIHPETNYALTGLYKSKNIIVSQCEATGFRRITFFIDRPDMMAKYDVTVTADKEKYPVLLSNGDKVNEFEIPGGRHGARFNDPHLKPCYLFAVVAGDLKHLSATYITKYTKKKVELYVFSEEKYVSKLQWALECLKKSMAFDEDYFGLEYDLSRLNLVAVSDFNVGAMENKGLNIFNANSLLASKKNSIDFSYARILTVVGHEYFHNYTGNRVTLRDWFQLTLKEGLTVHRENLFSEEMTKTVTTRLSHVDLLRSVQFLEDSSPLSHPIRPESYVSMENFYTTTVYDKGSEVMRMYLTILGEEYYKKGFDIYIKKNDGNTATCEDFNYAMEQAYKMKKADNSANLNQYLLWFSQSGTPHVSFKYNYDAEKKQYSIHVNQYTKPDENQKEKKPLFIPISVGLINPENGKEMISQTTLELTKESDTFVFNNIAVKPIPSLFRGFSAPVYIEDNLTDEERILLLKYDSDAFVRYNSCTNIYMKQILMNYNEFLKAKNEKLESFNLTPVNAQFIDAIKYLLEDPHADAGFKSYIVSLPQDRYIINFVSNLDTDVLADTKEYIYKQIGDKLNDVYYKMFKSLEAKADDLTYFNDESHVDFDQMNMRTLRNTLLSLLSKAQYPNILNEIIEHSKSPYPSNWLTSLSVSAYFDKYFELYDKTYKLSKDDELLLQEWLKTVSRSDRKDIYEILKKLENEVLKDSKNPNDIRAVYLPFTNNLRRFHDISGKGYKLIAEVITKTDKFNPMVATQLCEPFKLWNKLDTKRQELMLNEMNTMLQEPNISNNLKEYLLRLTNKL

[2] = system: Streptococcus sp. 'group A'; assay: growth inhibition of control SK(-) GAS strain, dose response, counter-screen for streptokinase expression inhibitor project, luminescence, kanamycin, BacTiterGlo, confirmation (AID 1900); assay type: functional, organism-based
[3] = system: Streptococcus; assay: Group A Streptococcus viability loss, dose response, counter-screen for streptokinase expression inhibitor project, luminescence, BacTiterGlo (AID 1915); assay type: functional, organism-based;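 also: potency for reduction of bacterial viability or growth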
[4] = biological target: T2, Mannose-6-phosphate isomerase (Homo sapiens, UniProt P34949); assay: human PMI inhibitors, high substrate, primary screen, biochemical, fluorescence intensity, high mannose 6-phosphate (AID 1220)
T2 sequence (P34949 whole entry): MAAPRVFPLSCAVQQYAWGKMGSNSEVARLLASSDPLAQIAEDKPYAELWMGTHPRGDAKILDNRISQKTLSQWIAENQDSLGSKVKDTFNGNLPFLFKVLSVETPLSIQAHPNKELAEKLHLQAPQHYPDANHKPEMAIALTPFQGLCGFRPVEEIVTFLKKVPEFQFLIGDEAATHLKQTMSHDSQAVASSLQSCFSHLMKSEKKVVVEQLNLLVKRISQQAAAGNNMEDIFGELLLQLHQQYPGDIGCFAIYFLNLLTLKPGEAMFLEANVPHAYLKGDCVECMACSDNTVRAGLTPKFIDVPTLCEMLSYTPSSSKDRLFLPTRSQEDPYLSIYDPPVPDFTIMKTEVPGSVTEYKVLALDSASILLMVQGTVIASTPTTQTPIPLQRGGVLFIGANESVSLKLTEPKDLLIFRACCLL

[5] = biological target: T3, Polyadenylate-binding protein 1 (Homo sapiens, UniProt P11940); assay: PABP1 MLLE–PAM2 interaction inhibitors, dose response, miRNA deadenylation inhibitor project, biochemical, fluorescence polarization, Cy5-PAM2 peptide, secondary (AID 602260); assay type: functional; conditions: read-out: IC50_Mean
[6] = biological target: T3, Polyadenylate-binding protein 1; assay: PABP1 MLLE–PAM2 binding inhibitor potency, dose response, biochemical, fluorescence polarization, FITC-PAM2 peptide (AID 602259); assay type: functional; conditions: read-out: IC50_Mean
[7] = cytotoxicity in HEK-293T cells, dose response, cytotoxicity control for BCR NF-kB inhibitor project, luminescence, B-cell screen hits (AID 489021); assay type: functional, cell-based;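 also: HEK-293T cells carrying an NF-kB luciferase reporter; cells exposed to compound for about 14 hours before viability readout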
[8] = biological target: T4, Leucine aminopeptidase (Plasmodium falciparum 3D7, UniProt Q8IL11); assay: P. falciparum M17LAP inhibitors, primary screen, biochemical, fluorogenic H-Leu-NHMec substrate, 1536-well (AID 1619); assay type: functional
T4 sequence (Q8IL11 whole entry): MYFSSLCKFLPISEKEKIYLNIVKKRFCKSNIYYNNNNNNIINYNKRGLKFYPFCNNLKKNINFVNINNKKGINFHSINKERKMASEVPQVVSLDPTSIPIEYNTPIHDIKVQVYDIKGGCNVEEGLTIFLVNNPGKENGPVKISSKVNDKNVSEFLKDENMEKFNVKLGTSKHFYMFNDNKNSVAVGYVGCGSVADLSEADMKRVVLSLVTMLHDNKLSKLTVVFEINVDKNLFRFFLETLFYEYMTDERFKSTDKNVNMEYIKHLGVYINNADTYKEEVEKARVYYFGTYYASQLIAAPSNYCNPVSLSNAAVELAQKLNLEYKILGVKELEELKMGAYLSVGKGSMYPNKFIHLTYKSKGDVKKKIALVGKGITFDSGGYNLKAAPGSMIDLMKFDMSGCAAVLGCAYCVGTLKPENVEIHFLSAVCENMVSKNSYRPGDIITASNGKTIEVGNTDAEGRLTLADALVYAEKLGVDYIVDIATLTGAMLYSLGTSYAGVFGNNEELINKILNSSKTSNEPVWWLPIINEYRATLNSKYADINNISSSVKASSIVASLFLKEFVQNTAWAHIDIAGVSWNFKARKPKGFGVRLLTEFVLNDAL

[9] = biological target: T5, Estrogen receptor beta (Homo sapiens, UniProt Q92731);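 also: recombinant ER-beta bound to coactivator SRC1 peptide in presence of estradiol agonist; inhibitors block coactivator peptide binding and lower the FRET signal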
[10] = biological target: T5, Estrogen receptor beta; assay: ERβ–SRC-3 coactivator interaction inhibitors, confirmation, orthogonal assay, biochemical, ELISA, streptavidin-HRP readout (AID 1060)
[11] = biological target: T6, Replicative DNA helicase DnaB (Mycobacterium tuberculosis, UniProt P9WMR3); assay: DnaB intein splicing inhibitors, dose response, biochemical, cell-free fluorescence (AID 449749); assay type: functional
T6 sequence (P9WMR3 whole entry): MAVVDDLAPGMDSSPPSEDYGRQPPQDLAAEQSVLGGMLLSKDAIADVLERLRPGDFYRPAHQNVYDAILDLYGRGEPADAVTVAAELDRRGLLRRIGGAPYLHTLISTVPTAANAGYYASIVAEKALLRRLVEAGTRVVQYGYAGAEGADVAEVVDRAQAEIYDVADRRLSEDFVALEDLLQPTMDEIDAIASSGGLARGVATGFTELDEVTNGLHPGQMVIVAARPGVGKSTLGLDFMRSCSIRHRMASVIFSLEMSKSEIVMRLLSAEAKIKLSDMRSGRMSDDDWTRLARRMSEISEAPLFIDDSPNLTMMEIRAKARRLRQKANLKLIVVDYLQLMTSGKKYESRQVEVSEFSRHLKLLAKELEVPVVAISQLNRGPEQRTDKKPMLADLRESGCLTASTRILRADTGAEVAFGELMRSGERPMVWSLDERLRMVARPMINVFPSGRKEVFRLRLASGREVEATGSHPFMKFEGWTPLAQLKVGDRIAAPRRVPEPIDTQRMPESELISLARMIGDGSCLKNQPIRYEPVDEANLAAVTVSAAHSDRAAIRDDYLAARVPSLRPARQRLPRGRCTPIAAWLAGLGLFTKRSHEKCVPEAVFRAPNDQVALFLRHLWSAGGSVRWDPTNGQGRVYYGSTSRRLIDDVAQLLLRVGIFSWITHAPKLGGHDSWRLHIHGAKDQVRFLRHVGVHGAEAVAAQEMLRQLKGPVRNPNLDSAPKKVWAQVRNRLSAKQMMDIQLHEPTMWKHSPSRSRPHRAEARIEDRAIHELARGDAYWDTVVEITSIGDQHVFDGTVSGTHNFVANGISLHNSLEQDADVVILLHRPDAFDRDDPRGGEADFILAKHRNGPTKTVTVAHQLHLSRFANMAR

[12] = biological target: T7, Protein RecA (Mycobacterium tuberculosis, UniProt P9WHJ3); assay: Fluorescence Cell-Free Homogeneous Dose Retest to Identify Inhibitors of RecA-Intein Splicing Activity. [Related pubchem assays (depositor defined):AID2097, AID2223, AID489010, AID492950]; assay type: functional
T7 sequence (P9WHJ3 whole entry): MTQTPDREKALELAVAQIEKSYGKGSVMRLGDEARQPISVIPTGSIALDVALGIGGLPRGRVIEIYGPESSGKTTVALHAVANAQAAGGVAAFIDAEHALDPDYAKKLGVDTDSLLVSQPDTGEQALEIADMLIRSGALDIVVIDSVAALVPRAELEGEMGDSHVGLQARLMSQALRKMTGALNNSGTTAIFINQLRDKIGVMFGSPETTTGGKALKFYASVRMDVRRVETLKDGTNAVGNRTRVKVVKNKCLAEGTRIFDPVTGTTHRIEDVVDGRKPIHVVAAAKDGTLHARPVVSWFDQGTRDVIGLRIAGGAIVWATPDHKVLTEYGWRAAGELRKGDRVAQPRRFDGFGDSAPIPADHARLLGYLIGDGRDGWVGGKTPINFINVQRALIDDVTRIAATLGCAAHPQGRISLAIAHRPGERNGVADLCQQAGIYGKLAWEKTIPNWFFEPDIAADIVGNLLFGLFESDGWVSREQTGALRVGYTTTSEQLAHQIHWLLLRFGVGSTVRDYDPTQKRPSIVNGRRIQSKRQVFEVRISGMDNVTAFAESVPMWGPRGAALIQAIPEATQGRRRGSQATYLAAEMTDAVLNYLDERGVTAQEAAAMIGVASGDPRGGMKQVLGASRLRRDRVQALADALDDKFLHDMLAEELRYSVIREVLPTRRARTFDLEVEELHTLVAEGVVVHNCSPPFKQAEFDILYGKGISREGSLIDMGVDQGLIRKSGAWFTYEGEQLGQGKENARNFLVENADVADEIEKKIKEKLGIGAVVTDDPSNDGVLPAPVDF

[13] = inhibitors of HIV Env-driven cell fusion, dose response, cherry-pick (AID 652057); assay type: functional, cell-based
[14] = ZM109 Env clade C HIV-1 fusion inhibitors, dose response, HeLa effector, CEM target cells, luciferase, cherry-pick (AID 652058); assay type: functional, cell-based
[15] = inhibitors of clade B AD8 Env fusion, dose response, cell-based, cherry-pick (AID 652062); assay type: functional;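 also: luciferase signal from cell-cell fusion driven by HIV-1 clade B AD8 Env; potency is for inhibitors of fusion seen as a drop in luminescence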
[16] = biological target: Beta-galactosidase (Escherichia coli, UniProt Q8VNN2); assay: Dose response counterscreen for EBI2 assay utilizing the enzyme, b-galactosidase.; assay type: functional
[17] = Luminescence Cell-Based Dose Confirmation HTS to Identify Activators of 5'UTR Stem-Loop Driven Alpha-Synuclein mRNA Translation in H4 Neuroglioblastoma Cells. [Related pubchem assays: 1829 (Project Summary), 1814 (Primary HTS)]; assay type: functional
[18] = Luminescence Cell-Based Dose Response HTS to Identify Activators of Luciferase Translation or Activity in H4 […] Cells. [Related pubchem assays: 1829 (Project Summary), 1814 (Primary HTS)]; assay type: functional
[19] = system: H4; assay: Luminescence Cell-Based Dose Response HTS to Identify Activators of 5'UTR Stem-Loop Driven Prion Protein mRNA Translation in H4 Neuroglioblastoma Cells. [Related pubchem assays: 1829 (Project Summary), 1814 (Primary HTS)]; assay type: functional; conditions: Homo sapiens
[20] = system: Vero; assay: Vero cell cytotoxicity, cytotoxicity control for flavivirus capping enzyme inhibitors (AID 588742); assay type: functional; conditions: Chlorocebus sabaeus

T5 sequence (Q92731 whole entry): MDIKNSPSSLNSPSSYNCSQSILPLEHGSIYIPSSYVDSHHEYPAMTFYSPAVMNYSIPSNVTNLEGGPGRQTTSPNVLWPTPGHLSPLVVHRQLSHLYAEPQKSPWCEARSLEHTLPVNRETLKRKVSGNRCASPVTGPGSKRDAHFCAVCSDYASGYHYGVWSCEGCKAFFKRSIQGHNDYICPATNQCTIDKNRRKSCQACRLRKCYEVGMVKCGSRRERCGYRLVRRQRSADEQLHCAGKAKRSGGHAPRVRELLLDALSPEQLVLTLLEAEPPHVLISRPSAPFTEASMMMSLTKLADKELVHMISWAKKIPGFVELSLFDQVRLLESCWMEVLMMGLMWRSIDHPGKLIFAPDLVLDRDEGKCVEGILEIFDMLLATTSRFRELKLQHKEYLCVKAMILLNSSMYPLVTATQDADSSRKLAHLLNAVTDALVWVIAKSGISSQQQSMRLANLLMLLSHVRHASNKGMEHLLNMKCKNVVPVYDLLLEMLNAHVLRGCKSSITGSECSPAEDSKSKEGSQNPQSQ
T3 sequence (P11940 whole entry): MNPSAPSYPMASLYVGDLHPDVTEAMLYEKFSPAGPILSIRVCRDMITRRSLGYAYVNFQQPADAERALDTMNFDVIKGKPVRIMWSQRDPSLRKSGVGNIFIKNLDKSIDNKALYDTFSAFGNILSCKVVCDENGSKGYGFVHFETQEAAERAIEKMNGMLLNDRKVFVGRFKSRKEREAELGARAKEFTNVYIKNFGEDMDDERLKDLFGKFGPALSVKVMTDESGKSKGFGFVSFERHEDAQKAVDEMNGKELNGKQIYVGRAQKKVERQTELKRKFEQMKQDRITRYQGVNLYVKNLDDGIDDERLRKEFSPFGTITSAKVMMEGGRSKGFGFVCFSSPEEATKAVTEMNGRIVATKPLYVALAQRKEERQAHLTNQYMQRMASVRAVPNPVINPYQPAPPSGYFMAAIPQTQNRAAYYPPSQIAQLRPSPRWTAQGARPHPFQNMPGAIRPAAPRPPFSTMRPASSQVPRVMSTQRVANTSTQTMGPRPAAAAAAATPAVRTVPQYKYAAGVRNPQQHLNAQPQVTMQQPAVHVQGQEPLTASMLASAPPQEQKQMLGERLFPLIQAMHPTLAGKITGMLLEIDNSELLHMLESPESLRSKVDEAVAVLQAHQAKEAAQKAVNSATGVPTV
Sequence of Beta-galactosidase (Q8VNN2 whole entry): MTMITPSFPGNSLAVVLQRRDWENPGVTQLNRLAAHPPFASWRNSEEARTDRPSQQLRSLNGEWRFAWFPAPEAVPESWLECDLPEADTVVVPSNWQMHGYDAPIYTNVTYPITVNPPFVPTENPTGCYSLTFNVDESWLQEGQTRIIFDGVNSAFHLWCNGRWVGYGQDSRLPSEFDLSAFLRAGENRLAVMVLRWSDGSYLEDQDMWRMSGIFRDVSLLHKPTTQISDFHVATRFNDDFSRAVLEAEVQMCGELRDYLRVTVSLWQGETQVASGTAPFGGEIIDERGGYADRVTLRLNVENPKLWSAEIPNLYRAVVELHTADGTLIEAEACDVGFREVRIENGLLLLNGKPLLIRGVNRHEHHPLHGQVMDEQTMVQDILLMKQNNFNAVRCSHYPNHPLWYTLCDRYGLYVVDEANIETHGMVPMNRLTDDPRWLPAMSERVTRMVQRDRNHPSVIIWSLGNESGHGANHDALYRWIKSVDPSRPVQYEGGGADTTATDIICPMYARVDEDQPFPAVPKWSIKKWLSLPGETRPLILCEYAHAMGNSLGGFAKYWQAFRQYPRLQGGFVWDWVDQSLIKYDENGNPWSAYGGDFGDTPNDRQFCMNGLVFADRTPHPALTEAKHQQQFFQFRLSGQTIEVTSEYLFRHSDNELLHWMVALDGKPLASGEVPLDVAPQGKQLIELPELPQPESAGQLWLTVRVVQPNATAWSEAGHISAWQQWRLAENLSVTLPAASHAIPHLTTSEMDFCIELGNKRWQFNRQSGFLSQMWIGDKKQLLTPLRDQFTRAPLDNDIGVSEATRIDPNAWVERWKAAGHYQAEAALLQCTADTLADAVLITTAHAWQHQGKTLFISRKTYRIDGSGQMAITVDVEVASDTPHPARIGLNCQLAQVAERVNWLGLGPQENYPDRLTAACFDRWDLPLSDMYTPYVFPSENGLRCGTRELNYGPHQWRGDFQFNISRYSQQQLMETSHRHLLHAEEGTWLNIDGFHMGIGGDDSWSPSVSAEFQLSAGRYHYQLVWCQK

CCC(=O)N1NC(=C2C(=O)N(C)C(=O)N(C)C2=O)CC1c1ccccc1 (stereo not drawn)
IC50 [1]: 41.9 µM (active) | EC50 [2]: 4.93 µM (active) | EC50 [3]: 8.9 µM (active)

CCOC(=O)COc1ccc2c(C#N)c3ccccn3c2c1
IC50 [4]: > 50 µM (not active) | IC50 [5]: > 66 µM (inactive) | IC50 [6]: > 66 µM (inactive)

Cc1ccc(-c2nsc3c(N4CCC(C(N)=O)CC4)ncnc23)cc1
IC50 [7]: > 80 µM (inactive)

COc1cccc(-c2[nH]nc3c2C(c2ccoc2)C(C#N)=C(N)O3)c1 (stereo not drawn)
IC50 [8]: 76.8 µM (active) | IC50 [9]: 20 µM (active) | IC50 [10]: > 50 µM (not active) | AC50 [11]: 8.72 µM (active) | EC50 [12]: 1.07 µM (active)

NC(=O)c1ccsc1NC(=O)COC(=O)Cc1ccsc1
IC50 [9]: 5.55 µM (active) | IC50 [10]: 1.84 µM (not active)

Cc1ccc(S(=O)(=O)N(C)C[C@@H]2Oc3cc(Br)ccc3S(=O)(=O)N([C@H](C)CO)C[C@@H]2C)cc1
AC50 [13]: 4.58 µM (active) | AC50 [14]: 7.1 µM (active) | AC50 [15]: 26.6 µM (active)

Nc1ccc2c(c1)OC1(CCCCC1)O2
IC50 [4]: > 50 µM (not active)

COc1ccc(/C=C2\SC(=S)N(CCC(=O)Nc3ccc(O)cc3)C2=O)cc1
IC50 [7]: > 80 µM (inactive)

Cc1c(CCC(=O)N2CCC(C(=O)O)(c3ccccc3)CC2)c(=O)oc2cc3oc4c(c3cc12)CCCC4
IC50 [7]: > 80 µM (inactive)

CCCc1nn(-c2ccccc2)c2c1C(c1cccs1)C(C#N)=C(N)O2 (stereo not drawn)
AC50 [11]: 12.6 µM (active) | EC50 [12]: 3.58 µM (active) | IC50 [16]: > 80 µM (inactive)

COc1ccc2ccc3c(c2c1)N=CC1(O3)N(C)c2ccccc2C1(C)C (stereo not drawn)
IC50 [4]: > 50 µM (not active) | AC50 [11]: 2.96 µM (active) | EC50 [12]: 36.2 µM (active)

N#Cc1nc(/C=C/c2ccccc2)oc1NCCCN1CCOCC1
IC50 [1]: 39.2 µM (active) | EC50 [17]: 22.1 µM (active) | EC50 [18]: 7.23 µM (active) | EC50 [19]: 38 µM (active)

COc1cc(/C=N/NC(=O)c2cc3ccccc3cc2O)ccc1OCCN1CCCCC1
IC50 [4]: > 50 µM (not active) | CC50 [20]: > 40 µM (active)

CCOC(=O)c1c(-c2cccs2)csc1N
IC50 [4]: > 50 µM (not active)
